Measured values from US9249102B2 (priority 2012, dated 2016).
Where two headings read alike, the source gives them in different places.

What was measured:
[1] = test system: microfilaria of Dirofilaria immitis; experiment: Method F: microfilaria of Dirofilaria immitis, survival at 24 hours
[2] = Method G: permeability in the Caco-2/TC7 in vitro model; details: human, Caco-2, pH 6.5
Haemonchus contortus [3] = experiment: Method A: Haemonchus contortus L1 larvae, microtitre plate screen; details: 96 h, read-out: motility inhibition
Haemonchus contortus [4] = experiment: Method D: Haemonchus contortus in vivo in Mongolian jirds; design: species or system Mongolian jirds (Meriones unguiculatus); details: po, 72 h, read-out: reduction in nematode infestation
Cooperia oncophora = experiment: Method C: Cooperia oncophora L1 larvae in vitro; details: 96 h, read-out: inhibition of motility
[5] = survival of microfilaria at 24 hours

Row | SMILES | EC50 [1, 5] [µg/mL] | Papp A→B at 20 μM [2] [×10⁻⁶ cm/s] | inhibition at 5 µg/mL (Haemonchus contortus [3]) [%] | inhibition in vivo at 30 mg/kg (Haemonchus contortus [4]) [%] | inhibition at 5 µg/mL (Cooperia oncophora) [%] | EC50 [1] [µg/mL]
1 | O=C(CO[C@H]1CC[C@H](Nc2ccc([N+](=O)[O-])c(C(F)(F)F)c2)CC1)N1CCN(CC2Cc3ccccc3O2)CC1 (some centres unmarked) [Compound 24, 1-[4-(2,3-dihydro-1-benzofuran-2-ylmethyl)piperazin-1-yl]-2-[(4-[[4-nitro-3-(trifluoromethyl)phenyl]amino]cyclohexyl)oxy]ethan-1-one] | < 1 | 9.7 | ≥ 90 | – | – | –
2 | O=C(CO[C@H]1CC[C@H](Nc2ccc([N+](=O)[O-])c(C(F)(F)F)c2)CC1)N1CCN(CC2Cc3cc(F)ccc3O2)CC1 (some centres unmarked) [Compound 77] | < 5 | – | ≥ 90 | > 90 | ≥ 90 | –
3 | O=C(CO[C@H]1CC[C@H](Nc2ccc([N+](=O)[O-])c(C(F)(F)F)c2)CC1)N1CCN(CC2Cc3cc(C(F)(F)F)ccc3O2)CC1 (some centres unmarked) [Compound 78, 2-[(4-[[4-nitro-3-(trifluoromethyl)phenyl]amino]cyclohexyl)oxy]-1-(4-[[5-(trifluoromethyl)-2,3-dihydro-1-benzofuran-2-yl]methyl]piperazin-1-yl)ethan-1-one] | < 5 | – | ≥ 90 | > 90 | ≥ 90 | –
4 | N#Cc1ccc(N[C@H]2CC[C@H](OCC(=O)N3CCN(CC4Cc5cc(C(F)(F)F)ccc5O4)CC3)CC2)cc1C(F)(F)F (some centres unmarked) [Compound 84, 4-([4-[2-oxo-2-(4-[[5-(trifluoromethyl)-2,3-dihydro-1-benzofuran-2-yl]methyl]piperazin-1-yl)ethoxy]cyclohexyl]amino)-2-(trifluoromethyl)benzonitrile] | – | 5.3 | ≥ 90 | – | – | < 5
5 | O=C(CO[C@H]1CC[C@H](Nc2ccc([N+](=O)[O-])c(C(F)(F)F)c2)CC1)N1CCN(c2ccc3cc(C(F)(F)F)ccc3n2)CC1 [Compound 89, 2-[(4-[[4-nitro-3-(trifluoromethyl)phenyl]amino]cyclohexyl)oxy]-1-[4-[6-(trifluoromethyl)quinolin-2-yl]piperazin-1-yl]ethan-1-one] | < 5 | – | ≥ 90 | > 90 | ≥ 90 | –
6 | O=C(CO[C@H]1CC[C@H](Nc2ccc([N+](=O)[O-])c(C(F)(F)F)c2)CC1)N1CCN(Cc2cc3cc(Cl)ccc3o2)CC1 [Compound 178, 1-[4-[(5-chloro-1-benzofuran-2-yl)methyl]piperazin-1-yl]-2-[(4-[[4-nitro-3-(trifluoromethyl)phenyl]amino]cyclohexyl)oxy]ethan-1-one] | < 1 | 4.9 | ≥ 90 | – | ≥ 90 | –
7 | O=C(COc1ccc(Nc2ccc([N+](=O)[O-])c(C(F)(F)F)c2)cc1)N1CCN(CC2Cc3cc(C(F)(F)F)ccc3O2)CC1 (centres unmarked) [Compound 187, 2-(4-[[4-nitro-3-(trifluoromethyl)phenyl]amino]phenoxy)-1-(4-[[5-(trifluoromethyl)-2,3-dihydro-1-benzofuran-2-yl]methyl]piperazin-1-yl)ethan-1-one] | < 1 | 5.5 | ≥ 90 | – | – | –
8 | O=C(NCCO[C@H]1CC[C@H](Nc2ccc([N+](=O)[O-])c(C(F)(F)F)c2)CC1)C(=O)NCc1cc2cc(Cl)ccc2o1 [Compound 222] | < 0.1 | 5 | ≥ 90 | – | – | –
9 | O=C(CO[C@H]1CC[C@H](Nc2ccc([N+](=O)[O-])c(C(F)(F)F)c2)CC1)N1CCN(Cc2cc3cc(F)ccc3s2)CC1 [Compound 234, 1-[4-[(5-fluoro-1-benzothiophen-2-yl)methyl]piperazin-1-yl]-2-[[4-[[4-nitro-3-(trifluorometh-yl)phenyl]amino]cyclohexyl]oxy]ethan-1-one] | < 0.1 | 4 | ≥ 90 | – | ≥ 90 | –
10 | CN(c1ccc([N+](=O)[O-])c(C(F)(F)F)c1)[C@H]1CC[C@H](OCC(=O)N2CCN(Cc3cc4cc(C(F)(F)F)ccc4o3)CC2)CC1 [Compound 256, 2-[[4-[methyl[4-nitro-3-(trifluoromethyl)phenyl]amino]cyclohexyl]oxy]-1-(4-[[5-(trifluorom-ethyl)-1-benzofuran-2-yl]methyl]piperazin-1-yl)ethan-1-one] | < 1 | 5.4 | ≥ 90 | – | – | –
11 | N#Cc1ccc(N[C@H]2CC[C@H](OCC(=O)N3CCN(Cc4cc5cc(Cl)ccc5o4)CC3)CC2)cc1C(F)(F)F [Compound 274, 2-[(4-[[4-cyano-3-(trifluoromethyl)phenyl]amino]cyclohexyl)-oxy]1-[4-(5-chlorobenzofuran-2-ylmethyl)piperazin-1-yl]ethan-1-one] | – | 9.2 | ≥ 90 | – | – | < 1
12 | CN(c1ccc(C#N)c(C(F)(F)F)c1)[C@H]1CC[C@H](OCC(=O)N2CCN(c3ccc4cc(C(F)(F)F)ccc4n3)CC2)CC1 [Compound 283, 2-[(4-[methyl[4-cyano-3-(trifluoromethyl)phenyl]amino]cyclohexyl)-oxy]1-[4-[6-(trifluoromethyl)quinolin-2-yl]-piperazin-1-yl]ethan-1-one] | – | – | ≥ 90 | > 90 | ≥ 90 | –
13 | O=C(CO[C@H]1CC[C@H](Nc2ccc([N+](=O)[O-])c(C(F)(F)F)c2)CC1)N1CCN(Cc2nc3cc(Cl)ccc3o2)CC1 [Compound 287, 2-[(4-[[4-nitro-3-(trifluoromethyl)phenyl]amino]cyclohexyl)-oxy]1-[4-(5-chlorobenzoxazol-2-ylmethyl)piperazin-1-yl]ethan-1-one] | < 5 | 11 | ≥ 90 | – | – | –
14 | O=C(CO[C@H]1CC[C@H](Nc2ccc([N+](=O)[O-])c(C(F)(F)F)c2)CC1)N1CCN(Cc2nc3cc(Cl)ccc3s2)CC1 [Compound 291, 1-[4-[(5-chloro-1,3-benzothiazol-2-yl)methyl]piperazin-1-yl]-2-[4-[4-nitro-3-(trifluoromethyl)anilino]cyclohexoxy]ethanone] | – | 6.2 | ≥ 90 | – | ≥ 90 | –
15 | N#Cc1ccc(N[C@H]2CC[C@H](OCC(=O)N3CCN(Cc4nc5cc(Cl)ccc5s4)CC3)CC2)cc1C(F)(F)F [Compound 292, 4-[[4-[2-[4-[(5-chloro-1,3-benzothiazol-2-yl)methyl]piperazin-1-yl]-2-oxo-ethoxy]cyclohexyl]amino]-2-(trifluoromethyl)benzonitrile] | – | 8.3 | ≥ 90 | – | – | < 1
16 | N#Cc1ccc(N[C@H]2CC[C@H](OCC(=O)N3CCN(Cc4nc5cc(F)ccc5s4)CC3)CC2)cc1C(F)(F)F [Compound 294, 4-[[4-[2-[4-[(5-fluoro-1,3-benzothiazol-2-yl)methyl]piperazin-1-yl]-2-oxo-ethoxy]cyclohexyl]amino]-2-(trifluoromethyl)benzonitrile] | – | 8.2 | ≥ 90 | – | – | < 5
17 | O=C(CO[C@H]1CC[C@H](Nc2ccc([N+](=O)[O-])c(C(F)(F)F)c2)CC1)N1CCN(Cc2ccc3cc(F)ccc3c2)CC1 [Compound 297, 2-[(4-[[4-nitro-3-(trifluoromethyl)phenyl]amino]cyclohexyl)-oxy]1-[4-(6-fluoronaphthalen-2-ylmethyl)piperazin-1-yl]ethan-1-one] | < 1 | 5.7 | ≥ 90 | – | ≥ 90 | –
18 | N#Cc1ccc(N[C@H]2CC[C@H](OCC(=O)N3CCN(Cc4nc5cc(C(F)(F)F)ccc5s4)CC3)CC2)cc1C(F)(F)F [Compound 301] | – | 9.9 | ≥ 90 | – | ≥ 90 | < 0.1
19 | CC(c1cc2cc(F)ccc2o1)N1CCN(C(=O)CO[C@H]2CC[C@H](Nc3ccc([N+](=O)[O-])c(C(F)(F)F)c3)CC2)CC1 (some centres unmarked) [Compound 304, 2-[(4-[[4-nitro-3-(trifluoromethyl)phenyl]amino]cyclohexyl)-oxy]1-[4-[1-(5-fluorobenzofuran-2-yl)ethyl]piperazin-1-yl]ethan-1-one] | < 5 | 9 | ≥ 90 | – | ≥ 90 | –
20 | N#Cc1ccc(N[C@H]2CC[C@H](OCC(=O)N3CCN(Cc4cc5cc(C(F)(F)F)ccc5o4)CC3)CC2)cc1C(F)(F)F [Compound 306, 4-(4-{2-oxo-2-[4-(5-trifluoromethyl-benzofuran-2-ylmethyl)-piperazin-1-yl]-ethoxy}-cyclohexylamino)-2-trifluoromethyl-benzonitrile] | – | 9 | ≥ 90 | – | – | < 0.1
21 | O=C(CO[C@H]1CC[C@H](Nc2ccc([N+](=O)[O-])c(C(F)(F)F)c2)CC1)N1CCN(Cc2cc3c(F)c(F)ccc3o2)CC1 [Compound 320, 2-[(4-[[4-nitro-3-(trifluoromethyl)phenyl]amino]cyclohexyl)-oxy]1-[4-(4,5-difluorobenzofuran-2-ylmethyl)piperazin-1-yl]ethan-1-one] | – | 6.8 | ≥ 90 | – | ≥ 90 | –
22 | O=C(CO[C@H]1CC[C@H](Nc2ccc([N+](=O)[O-])c(C(F)(F)F)c2)CC1)N1CCN(Cc2ccc3ccc(C(F)(F)F)cc3n2)CC1 [Compound 328, 2-[4-(4-nitro-3-trifluoromethyl-phenylamino)-cyclohexyloxy]-1-[4-(7-trifluoromethyl-quinolin-2-ylmethyl)-piperazin-1-yl]-ethanone] | – | 7.2 | ≥ 90 | – | ≥ 90 | –
23 | O=C(CO[C@H]1CC[C@H](Nc2ccc([N+](=O)[O-])c(C(F)(F)F)c2)CC1)N1CCN(c2nc3cc(C(F)(F)F)ccc3s2)CC1 [Compound 342, 2-[4-(4-nitro-3-trifluoromethyl-phenylamino)-cyclohexyloxy]-1-[4-(5-trifluoromethyl-benzothiazol-2-yl)-piperazin-1-yl]-ethanone] | – | – | ≥ 90 | > 90 | ≥ 90 | –
